Reference: PubChem BioAssay AID558 (University of Pittsburgh Molecular Library Screening Center, 2006)
Calls of active or inactive are those of the source. How the calls were made is not given here.

Biological target: Dual specificity protein phosphatase 1 (Homo sapiens) (UniProt P28562)
Experiment: DTT effect on MKP-1 inhibitor potency – biochemical, DTT added, probe assessment, dose response (AID 558)
Settings: recombinant MKP-1 phosphatase, fluorescence, with DTT

Sequence of Dual specificity protein phosphatase 1 (Homo sapiens) (P28562 whole entry, looked up): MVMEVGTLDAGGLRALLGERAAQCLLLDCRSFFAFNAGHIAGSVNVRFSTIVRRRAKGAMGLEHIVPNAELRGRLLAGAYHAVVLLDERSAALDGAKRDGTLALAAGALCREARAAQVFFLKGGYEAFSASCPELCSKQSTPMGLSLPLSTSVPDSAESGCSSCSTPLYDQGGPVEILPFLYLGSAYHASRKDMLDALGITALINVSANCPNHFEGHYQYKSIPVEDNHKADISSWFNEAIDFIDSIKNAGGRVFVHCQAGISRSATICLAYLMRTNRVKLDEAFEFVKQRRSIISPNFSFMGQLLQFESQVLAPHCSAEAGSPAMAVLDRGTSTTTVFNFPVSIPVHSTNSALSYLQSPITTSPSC

IC50: > 50 µM (inactive)
Compound: O=C1C(C2=C(O)c3ccccc3C2=O)=Nc2ccccc21
